Assay results taken from ChEMBL document CHEMBL1201862, “PubChem BioAssay data set” (2004).
One block for each molecule: values may come before it. Active and inactive are the calls of the source.

How the values were obtained:
Assay type in all cases: functional
[1] = molecular target: T1, Sentrin-specific protease 8 (Homo sapiens, UniProt Q96LD8); assay: inhibition of sentrin protease 8 – biochemical, luminescence, set 2, SAR follow-up (AID 588601)
T1 sequence (Q96LD8 whole entry): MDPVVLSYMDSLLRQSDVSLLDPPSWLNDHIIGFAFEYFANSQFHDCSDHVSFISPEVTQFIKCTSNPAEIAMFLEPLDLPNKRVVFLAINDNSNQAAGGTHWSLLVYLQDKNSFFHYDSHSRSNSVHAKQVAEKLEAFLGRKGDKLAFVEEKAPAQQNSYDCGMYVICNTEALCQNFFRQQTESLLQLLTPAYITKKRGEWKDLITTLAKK

[2] = molecular target: T2, Sentrin-specific protease 7 (Homo sapiens, UniProt Q9BQF6); assay: inhibition of human SENP7 cleavage activity – biochemical, luminescence, set 2, SAR follow-up (AID 588600)
T2 sequence (Q9BQF6 whole entry): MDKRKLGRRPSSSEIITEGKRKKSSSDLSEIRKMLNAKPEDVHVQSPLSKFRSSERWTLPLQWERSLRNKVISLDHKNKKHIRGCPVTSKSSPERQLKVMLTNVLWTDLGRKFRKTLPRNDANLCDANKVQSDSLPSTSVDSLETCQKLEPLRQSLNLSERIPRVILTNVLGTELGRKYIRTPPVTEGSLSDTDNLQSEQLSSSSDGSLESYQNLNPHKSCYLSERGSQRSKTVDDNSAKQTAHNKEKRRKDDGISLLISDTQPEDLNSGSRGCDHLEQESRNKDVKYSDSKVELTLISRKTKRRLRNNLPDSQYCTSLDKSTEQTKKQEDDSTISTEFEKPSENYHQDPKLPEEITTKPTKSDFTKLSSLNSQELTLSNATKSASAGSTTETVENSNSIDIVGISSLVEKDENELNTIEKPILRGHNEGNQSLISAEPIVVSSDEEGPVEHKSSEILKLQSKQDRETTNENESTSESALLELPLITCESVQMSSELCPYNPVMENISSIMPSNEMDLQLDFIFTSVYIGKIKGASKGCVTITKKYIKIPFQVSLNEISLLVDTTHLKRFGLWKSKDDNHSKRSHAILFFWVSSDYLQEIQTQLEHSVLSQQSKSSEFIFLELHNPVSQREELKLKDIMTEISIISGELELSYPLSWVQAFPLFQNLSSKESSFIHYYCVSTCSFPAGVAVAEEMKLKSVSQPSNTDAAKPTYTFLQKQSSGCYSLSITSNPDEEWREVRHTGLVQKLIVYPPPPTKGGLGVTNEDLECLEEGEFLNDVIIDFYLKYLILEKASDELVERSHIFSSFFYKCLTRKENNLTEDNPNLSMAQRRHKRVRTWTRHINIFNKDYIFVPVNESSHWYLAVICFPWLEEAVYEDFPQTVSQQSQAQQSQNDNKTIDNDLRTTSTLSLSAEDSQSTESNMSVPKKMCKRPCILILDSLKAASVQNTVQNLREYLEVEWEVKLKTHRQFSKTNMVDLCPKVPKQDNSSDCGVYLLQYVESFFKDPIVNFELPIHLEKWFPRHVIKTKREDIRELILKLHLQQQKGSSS

[3] = molecular target: T3, Sentrin-specific protease 6 (Homo sapiens, UniProt Q9GZR1); assay: inhibition of human SENP6 catalytic domain – biochemical, luminescence, set 2, SAR follow-up (AID 588598)
T3 sequence (Q9GZR1 whole entry): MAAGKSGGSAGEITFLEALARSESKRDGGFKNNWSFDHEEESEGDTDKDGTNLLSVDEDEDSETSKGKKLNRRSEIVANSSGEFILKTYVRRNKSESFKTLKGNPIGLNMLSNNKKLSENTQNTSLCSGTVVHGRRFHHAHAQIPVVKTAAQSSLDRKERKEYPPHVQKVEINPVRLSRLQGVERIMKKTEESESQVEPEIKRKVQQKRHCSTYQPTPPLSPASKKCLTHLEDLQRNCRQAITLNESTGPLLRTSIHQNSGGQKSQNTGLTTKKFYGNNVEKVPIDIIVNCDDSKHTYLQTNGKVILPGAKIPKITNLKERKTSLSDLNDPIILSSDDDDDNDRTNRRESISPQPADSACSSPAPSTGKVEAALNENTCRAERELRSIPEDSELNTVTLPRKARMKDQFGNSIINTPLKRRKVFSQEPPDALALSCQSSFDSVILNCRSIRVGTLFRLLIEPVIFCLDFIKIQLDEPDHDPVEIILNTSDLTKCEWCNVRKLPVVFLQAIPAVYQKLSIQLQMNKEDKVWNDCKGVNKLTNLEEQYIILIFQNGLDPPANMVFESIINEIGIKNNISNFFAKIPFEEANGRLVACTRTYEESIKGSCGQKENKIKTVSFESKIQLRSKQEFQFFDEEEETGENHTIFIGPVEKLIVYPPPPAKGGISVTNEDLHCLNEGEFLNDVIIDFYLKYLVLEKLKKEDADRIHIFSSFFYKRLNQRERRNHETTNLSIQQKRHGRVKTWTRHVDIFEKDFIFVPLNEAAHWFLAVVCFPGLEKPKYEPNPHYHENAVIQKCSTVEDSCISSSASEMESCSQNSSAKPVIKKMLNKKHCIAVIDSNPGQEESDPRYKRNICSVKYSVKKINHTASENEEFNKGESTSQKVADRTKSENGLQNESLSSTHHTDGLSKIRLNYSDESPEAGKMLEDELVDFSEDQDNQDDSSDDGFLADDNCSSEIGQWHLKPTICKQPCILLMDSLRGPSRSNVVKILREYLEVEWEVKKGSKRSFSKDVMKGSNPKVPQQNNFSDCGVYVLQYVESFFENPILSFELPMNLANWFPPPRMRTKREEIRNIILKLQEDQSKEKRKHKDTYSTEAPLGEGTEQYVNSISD

Caspase-3 = molecular target: T4, Caspase-3 (Homo sapiens, UniProt P42574); assay: inhibition of recombinant caspase-3 activity – biochemical, luminescence, set 2, selectivity assay for SENP protease inhibitor project, SAR follow-up (AID 588599)
T4 sequence (P42574 whole entry): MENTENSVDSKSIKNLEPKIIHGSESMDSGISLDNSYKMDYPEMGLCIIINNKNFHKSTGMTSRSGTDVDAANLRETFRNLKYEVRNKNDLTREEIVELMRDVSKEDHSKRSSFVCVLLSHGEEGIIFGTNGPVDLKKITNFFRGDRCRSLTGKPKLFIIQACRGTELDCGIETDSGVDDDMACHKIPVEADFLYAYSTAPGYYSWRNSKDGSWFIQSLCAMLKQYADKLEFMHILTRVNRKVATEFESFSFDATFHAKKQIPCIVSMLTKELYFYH

[4] = molecular target: T5, Neuropeptides B/W receptor type 1 (Homo sapiens, UniProt P48145); assay: human NPBW1 receptor blockade, IC50 – cell-based, fluorescence, dose response, set 6, late-stage follow-up (AID 588583)
T5 sequence (P48145 whole entry): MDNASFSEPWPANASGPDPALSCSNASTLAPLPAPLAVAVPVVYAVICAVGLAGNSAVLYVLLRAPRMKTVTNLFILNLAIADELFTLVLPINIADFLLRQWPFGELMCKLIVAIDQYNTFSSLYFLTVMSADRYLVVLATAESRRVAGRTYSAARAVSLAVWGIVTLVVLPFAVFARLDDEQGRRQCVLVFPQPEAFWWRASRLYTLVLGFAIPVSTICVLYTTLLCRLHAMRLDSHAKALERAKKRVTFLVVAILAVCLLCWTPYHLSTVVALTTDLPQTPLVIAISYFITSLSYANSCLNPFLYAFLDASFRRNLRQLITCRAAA

[5] = molecular target: Melanin-concentrating hormone receptor 1 (Homo sapiens, UniProt Q99705); assay: Late-stage fluorescence-based counterscreen for antagonists of the G-protein coupled receptor 7 (GPR7): cell-based dose response assay to identify antagonists of the melanin-concentrating hormone receptor 1 (MCHR1) Set 6.
Melanin-concentrating hormone receptor 1, sequence (Q99705 whole entry): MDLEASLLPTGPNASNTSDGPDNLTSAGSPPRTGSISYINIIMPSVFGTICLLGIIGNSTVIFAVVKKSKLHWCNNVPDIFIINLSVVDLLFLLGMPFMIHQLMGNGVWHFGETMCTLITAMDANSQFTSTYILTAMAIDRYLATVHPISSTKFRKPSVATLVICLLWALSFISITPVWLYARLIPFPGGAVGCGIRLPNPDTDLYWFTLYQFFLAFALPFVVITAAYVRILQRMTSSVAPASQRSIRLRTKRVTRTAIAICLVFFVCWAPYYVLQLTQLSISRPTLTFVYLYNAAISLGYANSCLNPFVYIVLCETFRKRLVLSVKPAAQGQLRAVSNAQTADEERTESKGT

Aurora kinase A = Aurora kinase A (Homo sapiens, UniProt O14965);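 note: value from the Navigating the Kinome kinase panel profiling, panel entry STK6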
Aurora kinase A, sequence (O14965 whole entry): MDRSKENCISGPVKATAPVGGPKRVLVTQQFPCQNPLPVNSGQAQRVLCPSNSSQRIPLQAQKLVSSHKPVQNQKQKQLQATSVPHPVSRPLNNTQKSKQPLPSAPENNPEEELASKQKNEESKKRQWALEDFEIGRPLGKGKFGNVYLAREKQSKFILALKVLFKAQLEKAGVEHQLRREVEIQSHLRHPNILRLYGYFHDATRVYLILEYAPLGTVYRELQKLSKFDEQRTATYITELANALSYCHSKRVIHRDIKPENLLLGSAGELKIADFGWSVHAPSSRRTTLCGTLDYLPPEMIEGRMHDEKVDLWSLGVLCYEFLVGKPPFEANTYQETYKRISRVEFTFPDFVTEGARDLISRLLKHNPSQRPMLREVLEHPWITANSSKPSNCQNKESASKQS

Aurora kinase B = Aurora kinase B (Homo sapiens, UniProt Q96GD4)
Aurora kinase B, sequence (Q96GD4 whole entry): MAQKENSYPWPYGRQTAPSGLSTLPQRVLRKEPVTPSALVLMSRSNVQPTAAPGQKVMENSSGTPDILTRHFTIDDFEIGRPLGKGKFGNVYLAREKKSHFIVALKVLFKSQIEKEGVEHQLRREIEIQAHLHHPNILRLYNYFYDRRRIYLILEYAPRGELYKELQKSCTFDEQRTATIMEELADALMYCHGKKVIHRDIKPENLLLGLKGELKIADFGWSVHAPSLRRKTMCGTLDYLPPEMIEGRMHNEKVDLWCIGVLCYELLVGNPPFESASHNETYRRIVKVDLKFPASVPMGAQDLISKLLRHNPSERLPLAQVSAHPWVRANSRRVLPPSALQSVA

[6] = (§1) Counterscreen for antagonists of the orexin 1 receptor (OX1R; HCRTR1): Fluorescence-based cell-based high throughput dose response assay to identify antagonists of the parental CHO cell line. [Related pubchem assays (depositor defined):AID434989, AID435008, AID463079, AID485270, AID492963, AID492964, AID492965, AID493232, AID504699, AID504701]
CHO-K1 = assay: as §1, with “Homogeneous time resolved fluorescence (HTRF)-based” for “Fluorescence-based”, “cell-based” for “cell-based high throughput”, “CHO-K1” for “CHO”; details: Cricetulus griseus;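 note: potency for inhibition of ATP-stimulated IP1 production as antagonists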
Orexin receptor type 2 [7] = molecular target: T6, Orexin receptor type 2 (Homo sapiens, UniProt O43614); assay: Counterscreen assay for antagonists of the orexin 1 receptor (OX1R; HCRTR1): Homogeneous Time Resolved Fluorescence (HTRF)-based cell-based dose response assay for antagonists of the orexin 2 receptor (OX2R; HCRTR2), run by assay provider.
T6 sequence (O43614 whole entry): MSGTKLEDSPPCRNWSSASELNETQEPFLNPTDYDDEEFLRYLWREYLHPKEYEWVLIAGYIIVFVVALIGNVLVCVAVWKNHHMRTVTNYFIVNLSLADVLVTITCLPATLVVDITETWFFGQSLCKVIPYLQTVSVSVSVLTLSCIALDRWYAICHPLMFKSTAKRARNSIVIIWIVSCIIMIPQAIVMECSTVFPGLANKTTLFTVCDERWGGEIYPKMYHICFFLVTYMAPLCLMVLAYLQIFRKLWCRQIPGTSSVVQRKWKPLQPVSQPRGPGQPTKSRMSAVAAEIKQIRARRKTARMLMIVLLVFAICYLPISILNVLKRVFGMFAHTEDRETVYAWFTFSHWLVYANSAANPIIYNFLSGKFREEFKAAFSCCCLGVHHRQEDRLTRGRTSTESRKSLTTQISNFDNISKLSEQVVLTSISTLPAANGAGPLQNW

[8] = molecular target: T7, Orexin/Hypocretin receptor type 1 (Homo sapiens, UniProt O43613); assay: (§2) Fluorescence-based cell-based high throughput dose response assay for antagonists of the orexin 1 receptor (OX1R; HCRTR1). [Related pubchem assays (depositor defined):AID434989, AID435008, AID463079, AID485270, AID492963, AID492964, AID492965, AID493232, AID504717, AID504718]
T7 sequence (O43613 whole entry): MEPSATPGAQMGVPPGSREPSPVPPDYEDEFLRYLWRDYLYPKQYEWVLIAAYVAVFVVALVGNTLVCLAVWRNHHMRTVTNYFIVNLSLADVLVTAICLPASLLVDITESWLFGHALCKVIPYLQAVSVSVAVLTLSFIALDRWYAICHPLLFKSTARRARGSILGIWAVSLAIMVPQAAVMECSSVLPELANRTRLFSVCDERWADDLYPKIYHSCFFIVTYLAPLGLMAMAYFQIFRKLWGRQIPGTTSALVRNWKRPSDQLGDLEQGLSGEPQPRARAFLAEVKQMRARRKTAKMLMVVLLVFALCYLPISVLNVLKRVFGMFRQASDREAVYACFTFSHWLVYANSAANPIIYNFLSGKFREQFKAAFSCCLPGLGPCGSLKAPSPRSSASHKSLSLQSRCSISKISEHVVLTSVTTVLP

Orexin receptor type 2 [9] = molecular target: T6, Orexin receptor type 2; assay: Counterscreen assay for antagonists of the orexin 1 receptor (OX1R; HCRTR1): Fluorescence-based cell-based dose response assay for antagonists of the orexin 2 receptor (OX2R; HCRTR2), run by assay provider.
[10] = molecular target: T7, Orexin/Hypocretin receptor type 1; assay: as §2, with “Homogeneous Time Resolved Fluorescence (HTRF)-based” for “Fluorescence-based”
[11] = molecular target: Mitochondrial peptide methionine sulfoxide reductase (Bos taurus, UniProt P54149); assay: Absorbance-based biochemical high throughput dose response assay for activators of Methionine sulfoxide reductase A (MsrA).
Mitochondrial peptide methionine sulfoxide reductase, sequence (P54149 whole entry): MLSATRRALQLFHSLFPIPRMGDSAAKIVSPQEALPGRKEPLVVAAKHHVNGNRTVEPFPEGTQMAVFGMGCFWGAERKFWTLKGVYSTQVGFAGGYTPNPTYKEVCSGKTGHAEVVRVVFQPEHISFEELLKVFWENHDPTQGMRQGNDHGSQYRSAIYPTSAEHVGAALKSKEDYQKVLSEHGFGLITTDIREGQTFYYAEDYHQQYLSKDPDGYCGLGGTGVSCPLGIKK

[12] = molecular target: DNA (cytosine-5)-methyltransferase 1 (Homo sapiens, UniProt P26358); assay: inhibition of DNA methylation by DNMT1 – biochemical, fluorescent molecular beacon, confirmation (AID 602386)
DNA (cytosine-5)-methyltransferase 1, sequence (P26358 whole entry): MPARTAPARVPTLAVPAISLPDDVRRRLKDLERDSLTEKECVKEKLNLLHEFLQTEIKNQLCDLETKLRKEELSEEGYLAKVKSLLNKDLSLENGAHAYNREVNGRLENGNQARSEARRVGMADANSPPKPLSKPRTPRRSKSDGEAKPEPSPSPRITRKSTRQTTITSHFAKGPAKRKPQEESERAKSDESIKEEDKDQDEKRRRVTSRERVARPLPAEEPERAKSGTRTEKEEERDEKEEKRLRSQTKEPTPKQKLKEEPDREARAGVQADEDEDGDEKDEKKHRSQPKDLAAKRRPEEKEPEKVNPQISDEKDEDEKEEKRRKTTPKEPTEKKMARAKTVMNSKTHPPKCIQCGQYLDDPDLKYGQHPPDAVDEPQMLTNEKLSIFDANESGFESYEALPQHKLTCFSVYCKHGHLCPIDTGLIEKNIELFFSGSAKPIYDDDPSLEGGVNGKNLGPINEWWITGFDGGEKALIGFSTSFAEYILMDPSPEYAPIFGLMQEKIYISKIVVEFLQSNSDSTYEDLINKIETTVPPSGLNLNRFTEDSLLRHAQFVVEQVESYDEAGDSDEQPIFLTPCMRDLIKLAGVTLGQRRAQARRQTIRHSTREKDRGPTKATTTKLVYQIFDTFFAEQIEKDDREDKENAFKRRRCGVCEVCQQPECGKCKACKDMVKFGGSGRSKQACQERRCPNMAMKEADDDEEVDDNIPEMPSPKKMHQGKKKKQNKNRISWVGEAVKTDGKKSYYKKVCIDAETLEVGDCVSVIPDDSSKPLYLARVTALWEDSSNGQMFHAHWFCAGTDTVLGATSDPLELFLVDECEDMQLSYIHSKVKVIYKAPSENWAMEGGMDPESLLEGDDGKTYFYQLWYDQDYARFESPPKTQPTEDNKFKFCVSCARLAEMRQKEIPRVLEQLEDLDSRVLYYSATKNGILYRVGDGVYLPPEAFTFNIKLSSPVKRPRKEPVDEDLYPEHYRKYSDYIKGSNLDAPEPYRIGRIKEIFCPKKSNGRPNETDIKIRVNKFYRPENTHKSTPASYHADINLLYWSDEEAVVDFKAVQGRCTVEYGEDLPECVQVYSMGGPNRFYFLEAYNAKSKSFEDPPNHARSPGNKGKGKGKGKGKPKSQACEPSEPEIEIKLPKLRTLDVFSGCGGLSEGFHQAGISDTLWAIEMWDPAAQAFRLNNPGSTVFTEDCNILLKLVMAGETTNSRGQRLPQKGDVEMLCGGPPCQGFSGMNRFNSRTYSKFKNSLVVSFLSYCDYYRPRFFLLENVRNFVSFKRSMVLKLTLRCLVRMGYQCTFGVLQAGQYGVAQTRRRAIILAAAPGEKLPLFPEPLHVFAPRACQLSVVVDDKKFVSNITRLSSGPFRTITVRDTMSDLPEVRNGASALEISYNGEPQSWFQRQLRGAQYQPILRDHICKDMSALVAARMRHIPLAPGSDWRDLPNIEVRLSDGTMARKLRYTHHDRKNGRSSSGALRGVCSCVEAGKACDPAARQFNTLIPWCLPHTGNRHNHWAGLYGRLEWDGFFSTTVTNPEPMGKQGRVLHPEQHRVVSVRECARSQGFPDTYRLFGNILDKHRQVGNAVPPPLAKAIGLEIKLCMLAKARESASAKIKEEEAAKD

Structure (SMILES): CC1CN(C(=O)C(=O)c2c[nH]c3ccccc23)CC(C)O1 (configuration not stated)
IC50 [1]: > 99 µM (inactive)
IC50 [2]: > 99 µM (inactive)
IC50 [3]: > 99 µM (inactive)
IC50 (Caspase-3): > 99 µM (inactive)

Structure (SMILES): COCc1c(C(=O)Nc2nc3ccc(C)cc3s2)sc2cccc(F)c12
IC50 [1]: > 99 µM (inactive)
IC50 [2]: > 99 µM (inactive)
IC50 [3]: > 99 µM (inactive)
IC50 (Caspase-3): > 99 µM (inactive)

Structure (SMILES): Cc1oc2ncnc(N)c2c1-c1ccc(NC(=O)Nc2cc(C(F)(F)F)ccc2F)cc1
Ki (Aurora kinase A): 0.126 µM (active)
Ki (Aurora kinase B): 0.00794 µM (active)

Structure (SMILES): COc1ccc(-c2cc3nc(-c4ccccc4)cc(N4CCC5(CC4)OCCO5)n3n2)cc1
IC50 [6]: > 49.8 µM (inactive)
IC50 (CHO-K1): > 66.2 µM (inactive)
IC50 (Orexin receptor type 2 [7]): > 50 µM (inactive)
IC50 [8]: 23.6 µM (inactive)
IC50 (Orexin receptor type 2 [9]): 10.8 µM (inactive)
IC50 [10]: 5.7 µM (active)

Further lines, results first:

IC50 [4]: 0.594 µM (active)
IC50 [5]: 0.594 µM (active)
Structure (SMILES): N#CC(c1ccc(Cl)cc1F)c1c(Cl)cnn(Cc2cccc3ccccc23)c1=O (configuration not stated)

IC50 [4]: 0.484 µM (active)
IC50 [5]: 0.484 µM (active)
Structure (SMILES): Cc1ccccc1Cn1ncc(Cl)c(C(C#N)c2ccccc2)c1=O (configuration not stated)

EC50 [11]: > 104 µM (inactive)
IC50 [12]: 1.34 µM (active)
Structure (SMILES): O=C1C(=O)c2c(ccc3ccccc23)-c2ccccc21
